Source: PubChem BioAssay (NCI)
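Five compound concentrations were applied to cells in 96-well plates for 48 hours; endpoints were derived by simple linear interpolation of the resulting dose-response curve. At the GI50, growth is halved. TGI marks complete inhibition of growth.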 Where a SMILES comes first, the peptide text is derived from it. The star is where a group is joined. Cbz = O=C(OCc1ccccc1)*; Boc = CC(C)(C)OC(=O)*; OBn = c1ccc(CO*)cc1

Key:
Test in all cases: growth of human tumour cells (NCI), 48 h
[1] = test system: SK-MEL-2 melanoma
[2] = test system: KM12 colon
[3] = test system: OVCAR-5 ovarian
[4] = test system: NCI-H460 lung
[5] = test system: CCRF-CEM leukemia
[6] = test system: EKVX NSCLC
[7] = test system: OVCAR-8 ovarian
[8] = test system: UACC-62 melanoma
[9] = test system: NCI-H226 lung
[10] = test system: SK-MEL-28 melanoma

SMILES | TGI [1] | TGI [2] | TGI [3] | TGI [4] | TGI [5] | TGI [6] | TGI [7] | TGI [8] | TGI [9] | TGI [10] | GI50 [1] | GI50 [2] | GI50 [3] | GI50 [4] | GI50 [5] | GI50 [6] | GI50 [9] | GI50 [10] | GI50 [8] | GI50 [7]
Cc1cc2c(cc1-c1cc3c(cc1C)C(C(C)C)=C(O)C(=O)/C3=C\Nc1cccc3c(N)cccc13)/C(=C/Nc1cccc3c(N)cccc13)C(=O)C(O)=C2C(C)C | > 100 µM | > 100 µM | > 100 µM | > 100 µM | > 100 µM | > 100 µM | > 100 µM | > 100 µM | > 100 µM | > 100 µM | – | – | – | – | – | – | – | – | – | –
C/C(O)=C/c1nc2sc(C)c(C)c2c(=O)s1 | 65.1 µM | > 100 µM | > 100 µM | – | > 100 µM | > 100 µM | > 100 µM | > 100 µM | > 100 µM | > 100 µM | – | – | – | – | – | – | – | – | – | –
CN(Cc1cnc2nc(N)nc(N)c2n1)c1ccc(C(=O)NC2CCCCC2)cc1 | > 100 µM | 83.2 µM | > 100 µM | 63.5 µM | > 100 µM | > 100 µM | > 100 µM | 32 µM | 80.4 µM | – | – | – | – | – | – | – | – | – | – | –
CSc1ccc(C=C2N=C(c3ccccc3)N(c3cc(C(=O)c4ccccc4)ccc3N3C(=O)/C(=C/c4ccc(SC)cc4)N=C3c3ccccc3)C2=O)cc1 | > 100 µM | > 100 µM | > 100 µM | > 100 µM | 62.4 µM | > 100 µM | > 100 µM | > 100 µM | – | > 100 µM | – | – | – | – | – | – | – | – | – | –
COC(=O)C(CCCCNC(=O)OCc1ccccc1)NC(=O)C(CCC(=O)OCc1ccccc1)NC(=O)OC(C)(C)C (configuration not stated) (Boc-Glu(OBn)-Lys(Cbz)-OMe; configuration not given here) | – | > 100 µM | > 100 µM | – | – | > 100 µM | > 100 µM | > 100 µM | > 100 µM | > 100 µM | – | – | – | – | – | – | – | – | – | –
COc1ccc(-n2c(-c3ccccc3)cc(-c3cccs3)c2-c2cccs2)cc1 | – | > 100 µM | > 100 µM | > 100 µM | 32.7 µM | > 100 µM | > 100 µM | > 100 µM | > 100 µM | > 100 µM | – | – | – | – | – | – | – | – | – | –
N=C(N)c1ccc(-c2ccc(-c3ccccc3)o2)cc1 | 3.98 µM | 3.58 µM | 6.95 µM | 3.65 µM | 5.03 µM | 11.8 µM | – | – | 27.7 µM | 3.35 µM | 2.14 µM | 1.86 µM | 2.11 µM | 1.93 µM | 2.13 µM | 2.61 µM | 7.93 µM | 1.67 µM | – | –
OCC1OC(NC(=S)NCSCCC(F)(F)C(F)(F)C(F)(F)C(F)(F)C(F)(F)C(F)(F)F)C(O)C(O)C1O (configuration not stated) | > 100 µM | > 100 µM | > 100 µM | > 100 µM | 91.3 µM | – | – | > 100 µM | – | > 100 µM | – | – | – | – | – | – | – | – | – | –
COc1cc(-c2c(C(C)=O)c(-c3ccccc3)n(C3OC(COC(C)=O)C(OC(C)=O)C(OC(C)=O)C3OC(C)=O)c(=S)c2C#N)ccc1O (configuration not stated) | – | > 100 µM | > 100 µM | > 100 µM | > 100 µM | > 100 µM | – | > 100 µM | – | > 100 µM | – | – | – | – | – | – | – | – | – | –
CCOC(=O)CC(=O)Nc1c(C(=O)OCC)sc2nc(SC)nc(Nc3ccc(OC)c(OC)c3)c12 | > 100 µM | > 100 µM | > 100 µM | – | > 100 µM | > 100 µM | > 100 µM | > 100 µM | > 100 µM | > 100 µM | – | – | – | – | – | – | – | – | – | –
[N-]=[N+]=NC1=C(N=[N+]=[N-])c2cccc3cccc(c23)C1=O | > 100 µM | > 100 µM | > 100 µM | > 100 µM | > 100 µM | > 100 µM | > 100 µM | > 100 µM | > 100 µM | – | – | – | – | – | – | – | – | – | – | –
COc1ccc(OC)c(CC(=O)c2ccc(O)c(C(=O)NCCc3ccc(F)cc3)c2)c1 | 12.3 µM | 13.9 µM | > 100 µM | 34 µM | 6.65 µM | 36.2 µM | 21.8 µM | 21.6 µM | – | > 100 µM | – | – | – | – | 2.4 µM | – | – | – | 4.01 µM | –
CCCCCCCCCCCCCCCc1ccc(C(=O)C[n+]2ccccc2)cc1 | – | 1.59 µM | – | 1.78 µM | – | 8.72 µM | 2.55 µM | – | > 100 µM | 2.99 µM | – | 0.523 µM | – | 0.546 µM | – | 1.82 µM | 4.15 µM | 1.21 µM | – | 1.22 µM
Brc1ccc(C2(N3CCCCC3)CCCCC2)s1 | 37 µM | > 100 µM | > 100 µM | 84.8 µM | 39.2 µM | > 100 µM | – | > 100 µM | – | – | – | – | – | – | – | – | – | – | – | –
CN(C)c1ccc(C=Nc2ccc(-c3nc4ccccc4o3)cc2)cc1 | 83.1 µM | > 100 µM | > 100 µM | 98.7 µM | – | 87.1 µM | > 100 µM | > 100 µM | – | > 100 µM | – | – | – | – | – | – | – | – | – | –
CCC1c2[nH]c3ccccc3c2C[C@H]2C(=O)NC(Cc3ccccc3)C(=O)N12 (some centres not stated) | 41.4 µM | 66 µM | 65.7 µM | – | – | 95 µM | > 100 µM | 38.8 µM | 74.9 µM | > 100 µM | – | – | – | – | – | – | – | – | – | –
